In data set [1] the test system is EGFR intracellular signaling (AP-1 activity). Kind of data set: EGFR signalling inhibition assay (AP-1 luciferase reporter, HeLa-AP1). Format: cell-based. The note with it: Homo sapiens; HeLa-AP1 cells, EGF 25 ng/mL stimulation, 18 hours. An excerpt: In this assay, the signal transduction pathway triggered by the activated Epidermal Growth Factor (EGF) membrane receptor is indirectly quantified using an EGF-responsive, API-mediated, luciferase reporter system.
HeLa-AP1, a subclone of HeLa cell line (human cervix carcinoma, ATCC# CCL-2) stably transfected with a construct containing the luciferase reporter gene under the control of the proximal promoter of the human collagenase-3 gene (consensus AP-1 response element TGACTCA at positions −56/−50) were used. Cells were maintained in DMEM supplemented with 10% FCS and 100 units/mL penicillin and streptomycin at 37° C. and 5% CO2. HeLa-AP1 cells were pre-treated with the indicated compounds for 30 min before stimulation with EGF (25 ng/mL). After further 18 hours incubation, cell survival was estimated, for normalisation, by loading cells for 30 min with the vital fluorescent probe calcein-AM (0.5 μM). Fluorescence was quantified using a 1420 Victor^2 plate multilabel counter (Wallac). After that, cells were lysed and assayed for luciferase activity using the Bright-Glo system (Promega) and a 1450 Microbeta plate luminescence counter (Wallac-Trilux). Results were expressed as percentage of AP-1 activity inhibition as compared to control, untreated cells.
On the technique in general: Reporter assays use an easily measured gene product as a stand-in for the process of interest.

Another data set concerns A549. Description: SRB antitumor screening, A549. Format: cell-based. To be noted: for CC50 / GI50: Homo sapiens; for CC50: A549, 48 h, read-out: LC50; for GI50 / TGI: NSCL A549, SRB, 48 hours exposure. The text has this:
(§1) The finality of these assays was to interrupt the growth of a “in vitro” tumor cell culture by means of a continued exhibition of the cells to the sample to be testing.
(§2) A colorimetric type of assay, using sulforhodamine B (SRB) reaction has been adapted for a quantitative measurement of cell growth and viability [following the technique described by Philip Skehan et al. (1990), New colorimetric cytotoxicity assay for anticancer drug screening, J. Natl. Cancer Inst., 82:1107-1112].
(§3) This form of assay employed 96 well cell culture microplates of 9 mm diameter (Faircloth et al. Methods in cell science, (1988), 11(4), 201-205; Mosmann, Journal of. Immunological Methods (1983), 65(1-2), 55-63. Most of the cell lines were obtained from American Type Culture Collection (ATCC) derived from different human cancer types.
(§4) Cells were maintained in RPMI 1640 10% FBS, supplemented with 0.1 g/L penicillin and 0.1 g/L streptomycin sulphate and then incubated at 37° C., 5% CO2 and 98% humidity. For the experiments, cells were harvested from subconfluent cultures using trypsin and resuspended in fresh medium before plating.
(§5) Cells were seeded in 96 well microtiter plates, at 5×10^3 cells per well in aliquots of 195 μL medium, and they were allowed to attach to the plate surface by growing in drug free medium for 18 hours. Afterward, samples were added in aliquots of 5 μL in a ranging from 10 to 10^−8 μg/mL, dissolved in DMSO:EtOH:PBS (0.5:0.5:99). After 48 hours exposure, the antitumor effect were measured by the SRB methodology: cells were fixed by adding 50 μL of cold 50% (wt/vol) trichloroacetic acid (TCA) and incubated for 60 minutes at 4° C. Plates were washed with deionised water and dried. One hundred μL of SRB solution (0.4% wt/vol in 1% acetic acid) was added to each microtiter well and incubated for 10 minutes at room temperature. Unbound SRB was removed by washing with 1% acetic acid. Plates were air dried and bound stain was solubilized with Tris buffer. Optical densities were read on an automated spectrophotometric plate reader at a single wavelength of 490 nm.
(§6) The values for mean +/−SD of data from triplicate wells were calculated. Some parameters for cellular responses could be calculated: GI=growth inhibition, TGI=total growth inhibition (cytostatic effect) and LC=cell killing (cytotoxic effect).

The subject of a further data set is HT29. Description: SRB antitumor screening, HT29. To be noted: Colon HT29, SRB, 48 hours exposure; for GI50: Homo sapiens, HT-29. Format: cell-based, human.
Text: as §1, §2, §3, §4
as §5, with “One hundred μL of SRB solution (0.4% wt/vol in 1% acetic acid) was added to each microtiter well and incubated for 10 minutes at room temperature. Unbound SRB was removed by washing with 1% acetic acid. Plates were air dried and bound stain was solubilized with Tris buffer.” left out
as §6

The next data set relates to MDA-MB-231. Kind of data set: SRB antitumor screening, MDA-MB-231. The note with it: Breast MDA-MB-231, SRB, 48 hours exposure; for GI50: Homo sapiens. Format: cell-based, human.
Text: as §1, §2, §3, §4
as §5, with “One hundred μL of SRB solution (0.4% wt/vol in 1% acetic acid) was added to each microtiter well and incubated for 10 minutes at room temperature. Unbound SRB was removed by washing with 1% acetic acid. Plates were air dried and bound stain was solubilized with Tris buffer.” left out
as §6

Data set [2] can be described thus: Single-administration dose range finding in mice (MTD). The note with it: mouse, in vivo; CD-1 male mice, single intravenous administration, vehicle micelles. As to the method: The finality of this assay was to determine the maximum tolerated dose (MTD) in mice by a single administration of the drug.
CD-1 male mice were used for this study, weighing ca. 25 g were randomly allocated to several dosing groups. Animals received a single intravenous administration of Stigmatellin A (CAS Number: 91682-96-1, purchased from Fluka (Ref: 85865)) dosed into the lateral vein of the tail. […] Mortality was recorded daily. The Maximum Tolerated Dose (MTD) was determined based on the mortality found in each dose level, calculated when mortality vs. dose is 0%.

In a further data set the test system is CD-1 male mice. Description: Multiple-administration dose range finding in mice (MTMD). Format: in vivo. On the procedure:
The finality of this assay was to determine the maximum tolerated multiple dose (MTMD) in mice by a multiple administration of the drug.
CD-1 male mice were used for this study, weighing ca. 25 g were randomly allocated to several dosing groups. Animals received a multiple doses by either intravenous or extravascular (intraperitoneal) route. […] Mortality was daily recorded. The MTMD was determined based on the mortality found in each dose level, calculated when mortality vs. dose is 0%.

The subject of data set [3] is photosynthetic electron transport. The note with it: cited from earlier work.
In the next data set the target is T1, cytochrome b-cl segment (Bos taurus, UniProt P00157+P13272).
T1 construct: bovine heart submitochondrial particles at the site of the cytochrome b-cl segment; host or cells: bovine heart submitochondrial particles
To be noted: bovine heart submitochondrial particles; cited from earlier work.

The IC50 is the midpoint of a concentration-inhibition curve. Lower therefore signals greater potency. The GI50 is the concentration at which growth is held to half of that of the control. Low readings indicate more potent growth inhibition, high ones less potent growth inhibition.

The structures appear in SMILES notation.

Take `CCCC(C)/C=C/C=C/[C@H](OC)[C@@H](C)[C@@H](OC)[C@@H](C)CCc1oc2c(O)c(OC)cc(OC)c2c(=O)c1C` (stereo partly shown) [Compound I]: in data set [1], the half-maximal inhibitory concentration (IC50) amounted to 0.226 µM. In addition, in the data set on A549, the CC50 came to 4.15 µM, the concentration for 50% growth inhibition (GI50) came to 92.3 nM and the TGI was 5.28E−7 Molar. Moreover, in the data set on HT29, the TGI turned out to be 5.84E−6 Molar and the GI50 was 867 nM. Further, in the data set with MDA-MB-231, the TGI is listed as 3.20E−6 Molar and halving of growth (GI50) required 153 nM.
In turn, `C/C=C(C)/C=C/C=C/C(OC)C(C)C(OC)C(C)CCc1oc2c(O)c(OC)cc(OC)c2c(=O)c1C` (stereo not shown) [Stigmatellin A] yielded a concentration for half-maximal inhibition (IC50) in data set [1] of 9.72 µM. The MTD at 4 days in data set [2] came to 0.44 mg/kg. Also, the CC50 with A549 turned out to be 7.58 µM. Also, the GI50 with A549 came out at 602 nM; with HT29, 991 nM; in the data set with MDA-MB-231, 389 nM. The molecule further displayed a TGI with A549 of 1.94E−6 Molar. Further, the MTMD in the data set with CD-1 male mice (ip/5DD, liposomes at 0.035 mg/mL) stood at 0.28 mg/kg; in the data set with CD-1 male mice (iv/5DD, liposomes at 0.096 mg/mL) it was 0.14 mg/kg. In addition, the “inhibition of photosynthetic electron transport” value in data set [3] is listed as “powerful inhibitor”. In addition, the inhibitory potency entry at cytochrome b-cl segment is “identical with that of antimycin and myxothiazol”.

Source of the values: patent US20080234363A1, “Antitumoral Compounds” (PHARMA MAR, S.A., priority 2005, published 2008).
